Reference: patent US7915302B2, “Crystal forms of pyrrolylheptanoic acid derivatives” (Dong-A Pharm. Co., Ltd., priority 2007, dated 2011)

Experiment: Stability Identification-Content Measurement (HPLC content after storage in HDPE bottle)
Type: physicochemical
Description: 80 mg of the novel crystalline form of the compound prepared in Example 2 and 80 mg of a standard product with a purity of 99.9% prepared by the process described in Example 2 were accurately weighed, placed in 100 ml volumetric flasks, and dissolved in dimethylformamide. The volumes of the solutions were adjusted to the marked lines of the flasks to prepare test solutions and standard solutions, respectively. Each of the solutions was analyzed by column chromatography under the following conditions: • Column: Zorbax Rx C8 (4.6 mm×250 mm, 5 μm) or its equivalent • Mobile Phase (0.05 M ammonium acetate buffer (pH=5.0)/acetonitrile/tetrahydrofuran) Mobile Phase A: • 0.05 M ammonium acetate buffer (pH=5.0)/acetonitrile/tetrahydrofuran (67/21/12) Mobile Phase B: • 0.05M ammonium acetate buffer (pH=5.0)/acetonitrile/tetrahydrofuran (54/34/12) • Detector: UV absorption spectrophotometer (wavelength: 244 nm) • Flow Rate: 1.0 mL/min. • Column Temperature: 35±2° C. • Storage: in HDPE bottle
The contents of the compound prepared in Example 2 were quantified by the area under each peak. Variations in the content of the compound were evaluated at room temperature, in a freezer, under accelerated storage conditions and under extreme storage conditions over the periods indicated in Table 6, and the results are shown in Table 6.

[R—(R*,R*)]-2-(4-fluorophenyl)-β,δ-dihydroxy-5-(1-methylethyl)-3-phenyl-4-[(phenylamino)carbonyl]-1H-pyrrole-1-heptanoic acid hemicalcium salt [Example 2]
content of the compound (40° C./75% RH (accelerated storage), 1 month): 98.82% | content of the compound (40° C./75% RH (accelerated storage), 2 months): 98.33% | content of the compound (40° C./75% RH (accelerated storage), 3 months): 98.03% | content of the compound (60° C./Dry (extreme storage), 1 month): 98.01% | content of the compound (at room temp., 1 month): 98.72% | content of the compound (at room temp., 2 months): 98.58% | content of the compound (at room temp., 3 months): 98.12% | content of the compound (at room temp., 6 months): 98.56% | content of the compound (in freezer, 1 month): 99.74% | content of the compound (in freezer, 2 months): 99.31% | content of the compound (in freezer, 3 months): 100.19% | content of the compound (in freezer, 6 months): 98.11%
